Source: patent US20240368133A1, “Compounds for the Treatment of Pain, in Particular, Neuropathic Pain, and/or Other Diseases or Disorders that are Associated with AT2R and/or AT2R Mediated Signaling” (Confo Therapeutics N.V., priority 2021, published 2024)

What was measured:
human AT1R = human AT1R (Homo sapiens (Human), UniProt P30556); assay: Counterscreen radioligand binding assay, displacement of 125I-[Sar1, Ile8]-Angiotensin II, hAT1R WT; settings: for inhibition at 1 µM / inhibition at 10 µM: 125I-[Sar1, Ile8]-Ang II, semi-quantitative score; for inhibition at 1 µM: compound at 1 μM, read-out: % Displaced radioligand at 1 μM; for inhibition at 10 µM: compound at 10 μM, read-out: % Displaced radioligand at 10 μM; for IC50: HEK-293 cell membranes, read-out: Binding affinity On hAT1R IC50
Sequence of human AT1R (P30556 whole entry): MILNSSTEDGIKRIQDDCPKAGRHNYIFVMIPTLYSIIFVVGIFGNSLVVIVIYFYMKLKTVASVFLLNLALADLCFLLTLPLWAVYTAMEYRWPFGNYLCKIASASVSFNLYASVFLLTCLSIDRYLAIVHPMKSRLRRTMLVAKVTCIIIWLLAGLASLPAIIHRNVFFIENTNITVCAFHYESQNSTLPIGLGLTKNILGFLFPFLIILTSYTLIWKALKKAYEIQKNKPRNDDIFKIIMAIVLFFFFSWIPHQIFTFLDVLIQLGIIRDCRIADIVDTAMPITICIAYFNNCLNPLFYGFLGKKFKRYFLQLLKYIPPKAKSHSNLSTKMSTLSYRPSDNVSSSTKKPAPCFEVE
In short: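 Compounds displaced 0.05 nM 125I-[Sar1, Ile8]-Ang II from human AT1R in HEK-293 membranes (1 h, 25° C; Tris/MgCl2/EDTA/BSA buffer, pH 7.4). Readout was filtration and scintillation counting, with non-specific binding set by 10 μM [Sar1]-Ang II. Values are % displacement at 1 μM and […], or IC50 from eight-point four-parameter fits.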

human AT2R fused to Cb23 = human AT2R fused to Cb23 (Homo sapiens, UniProt P50052); assay: Radioligand binding assay, displacement of 125I-[Sar1, Ile8]-Angiotensin II, hAT2R Cb23; settings: displacement of 125I-[Sar1, Ile8]-Angiotensin II, human AT2R fused to Cb23, HEK-293 cell membrane preparations; read-out: Binding affinity on hAT2R_Cb23 IC50
Sequence of human AT2R fused to Cb23 (P50052 whole entry, looked up, the tested form may be a part): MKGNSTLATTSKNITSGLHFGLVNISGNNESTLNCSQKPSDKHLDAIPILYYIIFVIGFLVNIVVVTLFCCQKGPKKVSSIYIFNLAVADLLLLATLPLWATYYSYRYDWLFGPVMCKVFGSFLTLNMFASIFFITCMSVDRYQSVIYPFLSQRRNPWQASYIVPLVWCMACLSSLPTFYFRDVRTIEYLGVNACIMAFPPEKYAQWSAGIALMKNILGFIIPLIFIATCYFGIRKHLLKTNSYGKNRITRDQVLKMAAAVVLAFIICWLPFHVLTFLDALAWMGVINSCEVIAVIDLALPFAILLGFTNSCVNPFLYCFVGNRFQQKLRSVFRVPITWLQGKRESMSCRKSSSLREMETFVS
In short: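 Membranes from HEK-293 cells expressing human AT2R fused to Cb23 were incubated with 0.05 nM 125I-[Sar1, Ile8]-Angiotensin II in 100 μL buffer (50 mM Tris, 5 mM MgCl2, 1 mM EDTA, 0.1% BSA, pH 7.4) for one hour at 25° C. Ligands were tested as eight-point dose-response curves in duplicate, with C21 and Angiotensin II as references.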

| SMILES | inhibition at 1 µM (human AT1R) | inhibition at 10 µM (human AT1R) | IC50 (human AT2R fused to Cb23) | IC50 (human AT1R) |
| --- | --- | --- | --- | --- |
| CC(C)Oc1cc(C2CC2)c(-c2nn[nH]n2)c(N2CCN(Cc3nc4ccccc4s3)CC2)c1 [Compound A-122, 2-[[4-[3-cycloprop-yl-5-isopropoxy-2-(2H-tetrazol-5-yl)-phenyl]piperazin-1-yl]methyl]-1,3-benzothiazole] | < 30% | < 30% | 0.293 µM |  |
| CCOc1cc(-c2nn[nH]n2)c(N2CCN(Cc3nc4ccccc4s3)CC2)cc1OC(C)C [Compound A-123, 2-[[4-[4-ethoxy-5-isopropoxy-2-(2H-tetrazol-5-yl)phen-yl]piperazin-1-yl]-methyl]-1,3-benzo-thiazole] | < 30% | < 30% | 4.88 µM |  |
| Fc1cc(C2CC2)cc(N2CCN(Cc3nc4ccccc4s3)CC2)c1-c1nn[nH]n1 [Compound A-125, 2-[[4-[5-cycloprop-yl-3-fluoro-2-(2H-tetrazol-5-yl)phen-yl]piperazin-1-yl]-methyl]-1,3-benzo-thiazole] | < 30% | < 30% | 0.389 µM |  |
| Cc1cc(C2CC2)cc(N2CCN(Cc3nc4ccccc4s3)CC2)c1-c1nn[nH]n1 [Compound A-127, 2-[[4-[5-cycloprop-yl-3-methyl-2-(2H-tetrazol-5-yl)phen-yl]piperazin-1-yl]-methyl]-1,3-benzo-thiazole] | < 30% | < 30% | 0.0744 µM |  |
| CCc1cc(C2CC2)cc(N2CCN(Cc3nc4ccccc4s3)CC2)c1-c1nn[nH]n1 [Compound A-128, 2-[[4-[5-cycloprop-yl-3-ethyl-2-(2H-tetrazol-5-yl)phen-yl]piperazin-1-yl]-methyl]-1,3-benzo-thiazole] | 30 to 50% | > 50% | 2.19 µM | 18.2 µM |
| c1ccc2sc(CN3CCN(c4cc(C5CC5)cc(C5CC5)c4-c4nn[nH]n4)CC3)nc2c1 [Compound A-129, 2-[[4-[3,5-dicyclo-propyl-2-(2H-tetrazol-5-yl)phen-yl]piperazin-1-yl]-methyl]-1,3-benzo-thiazole] | < 30% | < 30% | 0.158 µM |  |
| CC(C)Cc1cc(F)c(-c2nn[nH]n2)c(N2CCN(Cc3nc4ccccc4s3)CC2)c1 [Compound A-132, 2-[[4-[3-fluoro-5-isobutyl-2-(2H-tetrazol-5-yl)phen-yl]piperazin-1-yl]-methyl]-1,3-benzo-thiazole] | < 30% | < 30% | 0.355 µM |  |
| CC(C)Cc1cc(N2CCN(Cc3nc4ccccc4s3)CC2)c(-c2nn[nH]n2)cc1F [Compound A-133, 2-[[4-[4-fluoro-5-isobutyl-2-(2H-tetrazol-5-yl)phen-yl]piperazin-1-yl]-methyl]-1,3-benzo-thiazole] | < 30% | < 30% | 1.19 µM |  |
| Cc1cc(-c2nn[nH]n2)c(N2CCN(Cc3nc4ccccc4s3)CC2)cc1CC(C)C [Compound A-134, 2-[[4-[5-isobutyl-4-methyl-2-(2H-tetrazol-5-yl)phen-yl]piperazin-1-yl]-methyl]-1,3-benzo-thiazole] | < 30% | < 30% | 9.66 µM |  |
| Cc1cc(CC(C)C)cc(N2CCN(Cc3nc4ccccc4s3)CC2)c1-c1nn[nH]n1 [Compound A-135] | < 30% | < 30% | 0.022 µM |  |
| CCc1cc(CC(C)C)cc(N2CCN(Cc3nc4ccccc4s3)CC2)c1-c1nn[nH]n1 [Compound A-136, 2-[[4-[3-ethyl-5-isobutyl-2-(2H-tetrazol-5-yl)phen-yl]piperazin-1-yl]-methyl]-1,3-benzo-thiazole] | < 30% | < 30% | 0.0121 µM |  |
| CC(C)Cc1cc(C2CC2)c(-c2nn[nH]n2)c(N2CCN(Cc3nc4ccccc4s3)CC2)c1 [Compound A-137, 2-[[4-[3-cycloprop-yl-5-isobutyl-2-(2H-tetrazol-5-yl)-phenyl]piperazin-1-yl]methyl]-1,3-benzothiazole] | < 30% | < 30% | 0.016 µM |  |
| CC(C)Cc1cc(N2CCN(Cc3nc4ccccc4s3)CC2)c(-c2nn[nH]n2)cc1N [Compound A-138, 4-[4-(1,3-benzo-thiazol-2-ylmethyl)-piperazin-1-yl]-2-isobutyl-5-(2H-tetrazol-5-yl)aniline] | < 30% | < 30% | 4.71 µM |  |
| CNc1cc(-c2nn[nH]n2)c(N2CCN(Cc3nc4ccccc4s3)CC2)cc1CC(C)C [Compound A-139, 4-[4-(1,3-benzothi-azol-2-ylmethyl)-piperazin-1-yl]-2-isobutyl-N-methyl-5-(2H-tetrazol-5-yl)aniline] | < 30% | < 30% | 4.96 µM |  |
| CCNc1cc(-c2nn[nH]n2)c(N2CCN(Cc3nc4ccccc4s3)CC2)cc1CC(C)C [Compound A-140, 4-[4-(1,3-benzo-thiazol-2-ylmethyl)-piperazin-1-yl]-N-ethyl-2-isobutyl-5-(2H-tetrazol-5-yl)-aniline] | < 30% | 30 to 50% | 0.736 µM | 24.7 µM |
| CCc1ccc(-c2nn[nH]n2)c(N2CCN(Cc3nc4ccccc4s3)CC2)n1 [Compound A-142, 2-[[4-[6-ethyl-3-(2H-tetrazol-5-yl)-2-pyridyl]piperazin-1-yl]methyl]-1,3-benzothiazole] | < 30% | 30 to 50% | 9.11 µM |  |
| c1ccc2sc(CN3CCN(c4cc(C5CC5)cnc4-c4nn[nH]n4)CC3)nc2c1 [Compound A-143, 2-[[4-[5-cycloprop-yl-2-(2H-tetrazol-5-yl)-3-pyridyl]piper-azin-1-yl]methyl]-1,3-benzothiazole] | < 30% | < 30% | 5.46 µM |  |
| c1ccc2sc(CN3CCN(c4nc(C5CC5)ccc4-c4nn[nH]n4)CC3)nc2c1 [Compound A-145, 2-[[4-[6-cycloprop-yl-3-(2H-tetrazol-5-yl)-2-pyridyl]piper-azin-1-yl]methyl]-1,3-benzothiazole] | < 30% | < 30% | 8.22 µM |  |
| c1ccc2sc(CN3CCN(c4nc(C5CC5)cnc4-c4nn[nH]n4)CC3)nc2c1 [Compound A-146, 2-[[4-[6-cycloprop-yl-3-(2H-tetrazol-5-yl)pyrazin-2-yl]-piperazin-1-yl]-methyl]-1,3-benzo-thiazole] | < 30% | < 30% | 9.74 µM |  |
| CC(C)Cc1cnc(-c2nn[nH]n2)c(N2CCN(Cc3nc4ccccc4s3)CC2)c1 [Compound A-147, 2-[[4-[5-isobutyl-2-(2H-tetrazol-5-yl)-3-pyridyl]piperazin-1-yl]methyl]-1,3-benzothiazole] | < 30% | < 30% | 1.47 µM |  |
| CC(C)Cc1ccc(-c2nn[nH]n2)c(N2CCN(Cc3nc4ccccc4s3)CC2)n1 [Compound A-148, 2-[[4-[6-isobutyl-3-(2H-tetrazol-5-yl)-2-pyridyl]piperazin-1-yl]methyl]-1,3-benzothiazole] | < 30% | < 30% | 6.24 µM |  |
| c1ccc2sc(CN3CCN(c4cc(NCC5CC5)cnc4-c4nn[nH]n4)CC3)nc2c1 [Compound A-149, 5-[4-(1,3-benzo-thiazol-2-ylmethyl)-piperazin-1-yl]-N-(cyclopropylmeth-yl)-6-(2H-tetrazol-5-yl)pyridin-3-amine] | < 30% | < 30% | 8.4 µM |  |
| CC(C)Oc1cc(F)c(-c2nn[nH]n2)c(N2CCN(Cc3nc4ccccc4c(=O)[nH]3)CC2)c1 [Compound A-151, 2-[[4-[3-fluoro-5-isopropoxy-2-(2H-tetrazol-5-yl)phen-yl]piperazin-1-yl]-methyl]-3H-quin-azolin-4-one] | < 30% | < 30% | 6.79 µM |  |
| CC(C)Oc1cc(C2CC2)c(-c2nn[nH]n2)c(N2CCN(Cc3nc4ccccc4c(=O)[nH]3)CC2)c1 [Compound A-152] | < 30% | < 30% | 2.87 µM |  |
| CC(C)Cc1cc(N2CCN(Cc3nc4ccccc4c(=O)[nH]3)CC2)c(-c2nn[nH]n2)cc1F [Compound A-153, 2-[[4-[4-fluoro-5-isobutyl-2-(2H-tetrazol-5-yl)phen-yl]piperazin-1-yl]-methyl]-3H-quin-azolin-4-one] | < 30% | < 30% | 8.42 µM |  |
| CC(C)Cc1cc(F)c(-c2nn[nH]n2)c(N2CCN(Cc3nc4ccccc4c(=O)[nH]3)CC2)c1 [Compound A-154, 2-[[4-[3-fluoro-5-isobutyl-2-(2H-tetrazol-5-yl)phen-yl]piperazin-1-yl]-methyl]-3H-quin-azolin-4-one] | < 30% | < 30% | 0.16 µM |  |
| CCc1cc(OC(C)C)cc(N2CCN(Cc3cccnn3)CC2)c1-c1nn[nH]n1 [Compound A-159, 3-[[4-[3-ethyl-5-isopropoxy-2-(2H-tetrazol-5-yl)phen-yl]piperazin-1-yl]-methyl]pyridazine] | < 30% | < 30% | 3.08 µM |  |
